Here are results for 2 compounds from ChEMBL document CHEMBL5726706, “C-linked heterocycloaklyl substituted pyrimidines and their uses” (2018).

The test has as its target T1, Mitogen-activated protein kinase kinase kinase 12 (Homo sapiens, UniProt Q12852).
T1 sequence (Q12852 whole entry): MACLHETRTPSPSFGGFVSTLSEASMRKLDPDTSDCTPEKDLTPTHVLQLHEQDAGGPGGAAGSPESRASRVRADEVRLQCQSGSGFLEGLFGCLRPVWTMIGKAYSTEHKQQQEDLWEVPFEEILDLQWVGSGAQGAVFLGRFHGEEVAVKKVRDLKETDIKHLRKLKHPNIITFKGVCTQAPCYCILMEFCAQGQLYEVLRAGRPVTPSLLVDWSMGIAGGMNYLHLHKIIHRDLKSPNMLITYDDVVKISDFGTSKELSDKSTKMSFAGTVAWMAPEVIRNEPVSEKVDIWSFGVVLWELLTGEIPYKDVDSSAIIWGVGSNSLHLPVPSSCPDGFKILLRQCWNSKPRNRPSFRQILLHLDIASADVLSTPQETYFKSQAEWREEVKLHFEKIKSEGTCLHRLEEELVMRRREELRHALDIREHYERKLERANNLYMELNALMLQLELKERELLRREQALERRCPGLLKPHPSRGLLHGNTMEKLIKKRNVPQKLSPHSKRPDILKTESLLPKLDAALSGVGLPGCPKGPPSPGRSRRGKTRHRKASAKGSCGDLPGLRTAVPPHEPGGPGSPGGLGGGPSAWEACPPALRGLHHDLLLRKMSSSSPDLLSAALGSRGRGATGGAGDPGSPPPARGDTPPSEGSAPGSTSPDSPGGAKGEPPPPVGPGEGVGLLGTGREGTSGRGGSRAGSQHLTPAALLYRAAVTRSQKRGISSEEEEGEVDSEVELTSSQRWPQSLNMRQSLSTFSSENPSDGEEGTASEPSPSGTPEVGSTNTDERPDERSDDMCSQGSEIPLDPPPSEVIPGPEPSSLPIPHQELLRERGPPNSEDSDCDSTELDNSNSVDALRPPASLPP
Put plainly: TR-FRET assay: DLK kinase reactions (20 μL) containing 5 nM N-terminally GST-tagged DLK (catalytic domain amino acid 1-520) (Carna Bioscience), 40 nM N-terminally HIS-tagged MKK4 K131M substrate, and 30 μM ATP in kinase reaction buffer (50 mM HEPES, pH 7.5, 0.01% Triton X-100, 0.01% Bovine γ-Globulins, 2 mM DTT, 10 mM MgCl2 and 1 mM EGTA), and testing compound 1:3 serial diluted starting at 20 uM were incubated at ambient temperature for 60 minutes in 384 well OptiPlate (Perkin Elmer). To quench kinase reactions and detect phosphorylated MKK4, 15 μL of TR-FRET antibody mixture containing 2 nM anti-phosphorylated MKK4 labeled with Europium cryptate (Cisbio) and 23 nM anti-HIS labeled with D2 (Cisbio) in detection buffer (25 mM Tris pH 7.5, 100 mM NaCl, 100 mM EDTA, 0.01% Tween-20, and 200 mM KF) was added to the reaction mixture. The detection mixture was incubated for 3 hours at ambient temperature and the TR-FRET was detected with an EnVision multilabel plate reader (Perkin-Elmer) using the LANCE/DELFIA Dual Enh label from Perkin-Elmer (excitation filter: UV2 (TRF) 320 and emission filters: APC 665 and Europium 615).

Take `Cc1ccnc(Nc2cc(C3CCCN(C(=O)Cc4ccccc4)C3)nc(C)n2)c1` (configuration not stated): the inhibition constant Ki amounted to 639 nM.
Under `COC[C@H]1CCCN1c1nc(Nc2cc(C(F)(F)F)ccn2)cc(C2CCN(C(C)=O)CC2)n1` stands 54.8 nM.

As a reminder, the Ki is a dissociation constant, usually derived from enzyme kinetics or from competition with a known ligand.
